Measurements: article PMC3948684, “Approaches to Improve the Oral Bioavailability and Effects of Novel Anticancer Drugs Berberine and Betulinic Acid” (PLoS ONE, 2014)

How the values were obtained:
[1] = system: A549 orthotopic lung tumors; experiment: A549 orthotopic lung cancer model; assay type: in vivo, athymic Nu/nu mice; conditions: 100 mg/kg orally daily for 3 weeks
Procedure: A549 cells were grown in F12K Medium containing 10% FBS and standard antibiotic mix at 5% CO2 and 37°C. For orthotopic lung tumor model, mice were anesthetized with Isoflurane and a 5 mm skin incision was made to the left chest, 5 mm below the scapula. Hamilton syringes (1 ml) with 28-gauge hypodermic needles were used to inject the cell inoculums through the sixth intercostal space into the left lung. The needle was quickly advanced to a depth of 3 mm and quickly removed after the injection of the A549 cells (2 million/mouse) suspended in 100 µL PBS (pH 7.4) into the lung parenchyma. For metastatic lung tumor models H1650 cells (2 million in 100 µL PBS) were intravenously administered to mice via tail vein. […] Only cell suspensions of >95% viability as determined by tryphan blue exclusion were used. Wounds from the incisions were closed with surgical skin clips. […] Drug treatment was started 2 weeks after the tumor cell implantation. BBR free drug or SD formulation was given orally at the dose of 100 mg/kg daily for 3 weeks. […] Body weights were monitored throughout the study. Animal survival rates were recorded during the study. The lung weights and tumor volumes were used for assessment of therapeutic activity of the treatments. After sacrificing the animals lung weights and tumor nodules were recorded in metastatic tumor models.

Bcl-2 = experiment: Western blot of orthotopic lung tumor lysates; assay type: in vivo, athymic Nu/nu mice; conditions: A549 tumors; densitometry
Procedure: (§1) Western blot analysis was performed to study the expression of Bcl-2, cleaved caspase 3, survivin, cyclin D1, p53, MMP-9, HIF-1α. The detailed procedure was given as Data S1.
(§2) B) Western blot analysis: western blot analysis was performed to study the expression of Bcl-2, cleaved caspase 3, survivin, cyclin D1, p53, MMP-9, HIF-1α. The detailed procedure was given in supplementary data. Protein was extracted from tumor tissues collected from untreated control and drug treated animals using RIPA lysis buffer (50mM Tris-HCL, pH 8.0, with 150 mM sodium chloride, 1.0% Igepal CA-630 (NP-40), 0.5% sodium deoxychlorate, and 0.1% sodium dodecyl sulfate) with protease inhibitor and 500 mM phenylmethylsulfonyl fluoride. Protein concentration was measured using BCA Protein Assay Reagent Kit (PIERCE, Rockford, IL). Equal amounts of supernatant protein (50 μg) was denatured by boiling for 5 min in SDS sample buffer, separated by 10% SDS-PAGE, transferred to nitrocellulose membranes for immunoblotting. Membranes were blocked with 5% skim milk in Tris-buffered saline with Tween 20 [10mM Tris-HCL (pH 7.6), 150 mM Nacl, and 0.5% Tween 20] and probed with antibodies against Bcl-2 (1:1000), cleaved caspase 3 (1:500), survivin (1:1000), cyclin D1(1:1000), p53 (1:1000), MMP-9 (1:1000), HIF-1α (1:1000) and β-actin (1:1000). Horseradish peroxidase-conjugated secondary antibodies (Santa Cruz Biotechnology, Santa Cruz, CA) were used. Proteins were visualized using enhanced chemiluminescent solution (Pierce, Rockford, IL) and exposed to Kodak X-OMAT AR autoradiography film (Eastman Kodak, Rochester, NY).

HIF-1α = experiment: Western blot of orthotopic lung tumor lysates; assay type: in vivo, athymic Nu/nu mice; conditions: A549 tumors
Procedure: as §1, §2

cyclin D1 = experiment: Western blot of orthotopic lung tumor lysates; assay type: in vivo, athymic Nu/nu mice; conditions: A549 tumors; densitometry
Procedure: as §1, §2

p53 = experiment: Western blot of orthotopic lung tumor lysates; assay type: in vivo, athymic Nu/nu mice; conditions: A549 tumors; densitometry
Procedure: as §1, §2

survivin = experiment: Western blot of orthotopic lung tumor lysates; assay type: in vivo, athymic Nu/nu mice; conditions: A549 tumors; densitometry
Procedure: as §1, §2

cleaved caspase 3 = experiment: IHC analysis of orthotopic lung tumor sections; assay type: in vivo, athymic Nu/nu mice; conditions: A549 tumors
Source text: (§3) Formalin fixed tumors were processed for automatic histopathological procedures. The detailed procedure was provided in Data S1 [30].
(§4) C) IHC for cleaved caspase 3 and CD31: Formalin fixed tumors were processed for automatic histopathological procedures. The detailed procedure was provided in supplmmentary data (Supple). Tissue sections were dehydrated by immersing in increasing concentrations of alcohol and embedded in paraffin. Paraffin embedded specimens were cut into thin sections (4-5 µm). Tissue sections (4–5 μm thick) were mounted on poly-L-lysine–coated slides and sections were deparaffinized with xylene and rehydration through graded concentrations of alcohol, then incubated with 3% […] for 20 min to block endogenous peroxidase activity. Antigen retrieval for cleaved caspase 3 and CD31 staining was carried out for 10 min in 0.01 M sodium citrate buffer (pH 6), heated at 95°C in a steam bath followed by cooling for 30 min. Endogenous peroxidase was blocked by 3% hydrogen peroxide in PBS for 10 min. The slides were washed with PBS and incubated for 1h at room temperature with a protein blocking solution. […] Numbers of positive cells per filed was quantified by counting 10 different fields from each section. Based on the CD31 positive cells, microvessel density (MVD) was calculated (30).

CD31 = experiment: IHC analysis of orthotopic lung tumor sections (microvessel density); assay type: in vivo, athymic Nu/nu mice; conditions: A549 tumors; CD31 positive cells
Source text: as §3, §4

VEGF = experiment: Quantification of VEGF by ELISA; assay type: in vivo, athymic Nu/nu mice
Procedure: VEGF levels were estimated in plasma, tumor tissue homogenates by ELISA method. Tumors were homogenized in RIPA lysis buffer (20 mM Tris-HCl pH 7.5, 150 mM NaCl, 1% Triton X-100) containing proteinase inhibitors (Complete Proteinase Inhibitor Cocktail Tablets, Roche, Indianapolis. IN). Tissue debris was pelleted and the resulting supernatant was used in subsequent analysis. Total protein concentration was determined with a BCA protein assay (Pierce, Rockford, IL). VEGF concentrations were determined according to the manufacturer's instructions. A minimum of 3 tumors per group were analyzed in duplicate.

[2] = set-up: method as in PMID 19283771; conditions: oral administration of 100 mg/kg in rats ref 24; cited from earlier work
[3] = set-up: method as in PMID 16956957, PMID 20634337; conditions: oral ref 21, 22; cited from earlier work

In the case of `COc1ccc2cc3[n+](cc2c1OC)CCc1cc2c(cc1-3)OCO2.[Cl-]` [BBR free drug, 5,6-dihydro-9,10-dimethoxy-benzo[g]-1,3-benzodioxolo[5,6-a]quinolizinium, chloride], the “decrease in tumor volumes compared to untreated control” value [1] is reported as 1.31 fold, the lung tumor weights [1] is reported as 385.77 ± 63.42 mg and the “reduced tumor weights compared to control tumors” value [1] is reported as 1.40 fold. The “beta actin relative Bcl-2 expression reduced compared to untreated control” value (Bcl-2) was 2.79 fold, the HIF-1α expression (HIF-1α) was “significantly down regulated” and the “cyclin D1 relative expression reduced compared to untreated control” value (cyclin D1) was 1.02 fold. For the same compound, the “relative expression of p53 increased compared to untreated control” value (p53) was 2.51 fold, the “survivin expression down regulated compared to control” value (survivin) was 2.03 fold and the “number of cleaved caspase 3 positive apoptotic cells, higher compared to control” value (cleaved caspase 3) was 4.20 fold. The “microvessel density (MVD) reduced compared to untreated control tumors” value (CD31) was 1.44 fold, the “VEGF levels in tumor lysates” value (VEGF; untreated control 284.71±42.84) was 137.59±20.84 pg/mg protein and the “VEGF levels in serum” value (VEGF; untreated control 597.90±54.03) was 315.41 ± 44.06 pg/mL. For the same compound, the Cmax [2] was 4 ng/mL and the bioavailability [3] was “less than 1%”.
